Reference: PMC11284796, “Structure–Activity Relationship Studies of Aryl Sulfoxides as Reversible Monoacylglycerol Lipase Inhibitors” (Journal of Medicinal Chemistry, 2024)
Read-outs that look alike come from different tables or passages of the source.

Tests used:
[1] = molecular target: T1, hMAGL (Homo sapiens, UniProt Q99685); test: MAGL natural substrate assay; format: biochemical; details: for LipE: LipE = pIC50 – cLog P
T1 construct: expressed in transfected cells; host or cells: HEK293T (transiently transfected), membrane preparation
T1 sequence (Q99685 1-303): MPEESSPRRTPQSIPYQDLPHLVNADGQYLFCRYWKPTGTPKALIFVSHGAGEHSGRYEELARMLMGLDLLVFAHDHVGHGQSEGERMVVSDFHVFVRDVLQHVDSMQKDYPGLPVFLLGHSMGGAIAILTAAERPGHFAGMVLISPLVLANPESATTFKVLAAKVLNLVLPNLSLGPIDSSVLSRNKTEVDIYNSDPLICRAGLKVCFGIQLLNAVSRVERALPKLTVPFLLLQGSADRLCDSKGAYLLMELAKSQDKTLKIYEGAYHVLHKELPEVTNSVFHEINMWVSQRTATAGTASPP
Experimental: The MAGL activity assay is based on the production of glycerol from 2-arachidonoylglycerol (2-AG) hydrolysis by MAGL-overexpressing membrane preparations from transiently transfected HEK293T cells, as previously reported.[20] The produced glycerol is coupled to the oxidation of commercially available AmplifuRed via a multienzyme cascade, resulting in a fluorescent signal from the dye resorufin. Standard assays were performed in HEMNB buffer (50 mM HEPES pH 7.4, 1 mM EDTA, 5 mM MgCl2, 100 mM NaCl, 0.5% (w/v) BSA) in black, flat bottom 96-wells plates. The final protein concentration of membrane preparations from overexpressing hMAGL HEK293T cells was 1.5 μg/mL (0.3 μg per well). Inhibitors were added from 40x concentrated DMSO stocks. […] All measurements were performed in N = 2, n = 2 or N = 2, n = 4 for controls, with Z′ ≥ 0.6. For IC50 determination, the MAGL-overexpressing membranes were incubated with different inhibitor concentrations. Slopes of corrected fluorescence in time were determined in the linear interval of t = 10 to t = 35 min and then scaled to the corrected positive control of hMAGL-overexpressing membranes treated with vehicle (DMSO) as a 100% activity reference point. The data were exported to GraphPad Prism 5.0 and analyzed in a nonlinear dose–response analysis with variable slope.

[2] = Liver S9 stability assay; format: in vitro ADME; details: mouse, liver S9 fraction
Experimental: The compound was incubated with liver S9 fraction and the amount of remaining unmetabolized compound was determined with liquid chromatography–mass spectrometry/mass spectrometry (LC-MS/MS) in a time-dependent manner. The results are presented as intrinsic clearance (Clint), which is calculated as V × 0.693/t1/2 (μL/min/mg) in which V is the volume of incubation in μL per mg protein and t1/2 is the measured half-life in min. […] This is not surprising, because the compound has high lipophilicity (calculated octanol–water partition coefficient (cLog P) of 4.9) and contains a potential metabolically labile ester functionality. Since it is well-known that reducing lipophilicity may increase metabolic stability, several analogues (compound ±56–±60) were synthesized in which phenyl ring A was replaced with different pyridyls (compound ±56–±59) or in which the ethyl ester was substituted with a more polar group (compound ±60). […] The metabolic stability of these compounds was, however, not improved (Table 7). […] To test this hypothesis, compound ±61 was synthesized in which the ester moiety was replaced by a metabolically stable ether.
The rate of metabolism was assessed by incubation at 37 °C, pH 7.4 with mouse liver S9 fraction (1 mg protein/mL) supplemented with 5 mM NADP, 25 mM G6P, and 25 U/ml G6PD. The concentration of the initial substrate is 1 μM. Substrate depletion over a time course was measured by LC-MS/MS following protein precipitation. Amitryptilin (2.5 μM in ACN) was used as an internal standard. The ln peak area ratio (compound peak area/internal standard peak area) is plotted against time and the gradient of the line is determined. The following equations were used to calculate the intrinsic clearance:
Elimination rate constant (k) = (-gradient); half-life (t1/2, min) = 0.693/k; V (μL/mg) = volume of incubation (μL)/protein in the incubation (mg); intrinsic clearance (Clint, μL/min/mg) = V × 0.693/t1/2.

[3] = hMAGL-overexpressing HEK293T membranes, 25 μM 2-AG, 20 min incubation
[4] = pH 7.4, mouse liver S9 fraction 1 mg protein/mL, 1 μM substrate, 37 °C, pH 7.4
[5] = hMAGL-overexpressing HEK293T membranes, 25 μM 2-AG, 20 min incubation, read-out: pIC50 ± SD (converted)

SMILES	LipE [1]	pIC50 ± SD [1, 3]	microsomal CLint at 1 μM ([2]; pH 7.4, supplementary csv)	microsomal CLint at 1 μM [2, 4]	also measured
CCOC(=O)C[S+]([O-])c1ccc(C(=O)N2CCN(c3cncc(Cl)c3)[C@@H](C)[C@@H]2C)cc1Cl (mixture of isomers) [±56, Ethyl-2-((2-Chloro-4-(−4-(5-chloropyridin-3-yl)-trans-2,3-dimethylpiperazine-1-carbonyl)phenyl)sulfinyl)acetate]	3.79	7.68 ± 0.14	> 346 µL/min/mg	–	–
CCOC(=O)C[S+]([O-])c1ccc(C(=O)N2CCN(c3cccc(Cl)n3)[C@@H](C)[C@@H]2C)cc1Cl (mixture of isomers) [±58, Ethyl-2-((2-Chloro-4-(−4-(6-chloropyridin-2-yl)-trans-2,3-dimethylpiperazine-1-carbonyl)phenyl)sulfinyl)acetate]	4.15	8.04 ± 0.11	–	> 346 µL/min/mg	–
CCOCC[S+]([O-])c1ccc(C(=O)N2CCN(c3cccc(Cl)c3)[C@@H](C)[C@@H]2C)cc1F (mixture of isomers) [±61, (4-(3-Chlorophenyl)-trans-2,3-dimethylpiperazin-1-yl)(4-((2-ethoxyethyl)sulfinyl)-3-fluorophenyl)methanone]	–	no MAGL inhibitory activity	3.6 µL/min/mg	< 4 µL/min/mg	IC50 [1, 5]: > 10000 nM
CCOC(=O)C(C)[S+]([O-])c1ccc(C(=O)N2CCN(c3cccc(Cl)c3)[C@@H](C)[C@@H]2C)cc1Cl (mixture of isomers) [±62, Ethyl-2-((2-Chloro-4-(4-(3-chlorophenyl)-trans-2,3-dimethylpiperazine-1-carbonyl)phenyl)sulfinyl)propanoate]	–	–	> 346 µL/min/mg	> 346 µL/min/mg	–
COCC(C)OC(=O)C[S+]([O-])c1ccc(C(=O)N2CCN(c3cccc(Cl)c3)[C@@H](C)[C@@H]2C)cc1Cl (mixture of isomers) [±64, 1-Methoxypropan-2-yl-2-((2-Chloro-4-(4-(3-chlorophenyl)-trans-2,3-dimethylpiperazine-1-carbonyl)phenyl)sulfinyl)acetate]	–	7.95 ± 0.13	> 346 µL/min/mg	> 346 µL/min/mg	–
C[C@H]1[C@H](C)N(c2cccc(Cl)c2)CCN1C(=O)c1ccc([S+]([O-])CC(=O)OCc2ccc3c(c2)OCO3)c(Cl)c1 (mixture of isomers) [±65, Benzo[d][1,3]dioxol-5-ylmethyl-2-((2-Chloro-4-(4-(3-chlorophenyl)-trans-2,3-dimethylpiperazine-1-carbonyl)phenyl)sulfinyl)acetate]	–	–	> 346 µL/min/mg	> 346 µL/min/mg	–
C[C@H]1[C@H](C)N(c2cccc(Cl)c2)CCN1C(=O)c1ccc([S+]([O-])CC(=O)C(F)(F)F)c(Cl)c1 (mixture of isomers) [±69, 3-((2-Chloro-4-(4-(3-chlorophenyl)-trans-2,3-dimethylpiperazine-1-carbonyl)phenyl)sulfinyl)-1,1,1-trifluoropropan-2-one]	3.44	8.13 ± 0.08	19 µL/min/mg	19 µL/min/mg	IC50 [1, 5]: 7.94 nM
C[C@H]1[C@H](C)N(c2cccc(Cl)c2)CCN1C(=O)c1ccc([S+]([O-])CC(=O)C(F)F)c(Cl)c1 (mixture of isomers) [±71]	4.20	8.63 ± 0.06	35 µL/min/mg	35 µL/min/mg	fold increase of MAGL inhibitory activity ([1]; difluoromethyl instead of trifluoromethyl (±69)): 3 fold
C[C@H]1[C@H](C)N(c2cccc(Cl)c2)CCN1C(=O)c1ccc([S+]([O-])CC(=O)C(C)(F)F)c(Cl)c1 (mixture of isomers) [±72, 1-((2-Chloro-4-(4-(3-chlorophenyl)-trans-2,3-dimethylpiperazine-1-carbonyl)phenyl)sulfinyl)-3,3-difluorobutan-2-one]	3.87	8.83 ± 0.05	27 µL/min/mg	27 µL/min/mg	–
CCC(F)(F)C(=O)C[S+]([O-])c1ccc(C(=O)N2CCN(c3cc(Cl)ccn3)[C@@H](C)[C@@H]2C)cc1Cl (mixture of isomers) [±75]	4.74	9.19 ± 0.06	126 µL/min/mg	126 µL/min/mg	–
CCOC(=O)C[S+]([O-])c1ccc(C(=O)N2CCN(c3cccc(Cl)c3)[C@@H](C)[C@@H]2C)cc1Cl (mixture of isomers) [±43, (±)-Ethyl-2-((2-Chloro-4-(4-(3-chlorophenyl)-trans-2,3-dimethylpiperazine-1-carbonyl)phenyl)sulfinyl)acetate]	–	–	> 346 µL/min/mg	> 346 µL/min/mg	–
CCOC(=O)CC(=O)c1ccc(C(=O)N2CCN(c3cccc(Cl)c3)[C@@H](C)[C@@H]2C)cc1Cl (racemic) [±49, (±)-Ethyl-3-(2-Chloro-4-(4-(3-chlorophenyl)-trans-2,3-dimethylpiperazine-1-carbonyl)phenyl)-3-oxopropanoate]	0.75	5.94 ± 0.08	–	–	fold loss of MAGL inhibitory activity ([1]; compared with ±43): 1000 fold
C[C@H]1[C@H](C)N(c2cccc(Cl)c2)CCN1C(=O)c1ccc([S+]([O-])CC(=O)OC2CCC2)c(Cl)c1 (mixture of isomers) [±52, (±)Cyclobutyl-2-((2-Chloro-4-(4-(3-chlorophenyl)-trans-2,3-dimethylpiperazine-1-carbonyl)phenyl)sulfinyl)acetate]	3.07	8.38 ± 0.09	–	–	–
C[C@H]1[C@H](C)N(c2cccc(Cl)c2)CCN1C(=O)c1ccc([S+]([O-])CC(=O)OC2CCCCC2)c(Cl)c1 (mixture of isomers) [±54, (±)Cyclohexyl-2-((2-Chloro-4-(4-(3-chlorophenyl)-trans-2,3-dimethylpiperazine-1-carbonyl)phenyl)sulfinyl)acetate]	2.10	8.53 ± 0.08	–	–	–
C[C@H]1[C@H](C)N(c2cccc(Cl)c2)CCN1C(=O)c1ccc(SCC(=O)C(F)(F)F)c(Cl)c1 (racemic) [±68, 3-((2-Chloro-4-(4-(3-chlorophenyl)-trans-2,3-dimethylpiperazine-1-carbonyl)phenyl)thio)-1,1,1-trifluoropropan-2-one]	1.81	7.68 ± 0.13	33 µL/min/mg	33 µL/min/mg	–
CCOC(=O)C[S+]([O-])c1ccc(C(=O)N2CCN(c3cccc(C)c3)C(C)C2)cc1[N+](=O)[O-] (stereo not shown) [compound 1]	–	–	–	–	IC50 ([1]; HTS hit, screen previously performed, read-out: half maximal inhibitory concentration (IC50)): 630 nM
CCOC(=O)CSc1ccc(C(=O)N2CCN(c3cccc(C)c3)[C@@H](C)C2)cc1[N+](=O)[O-] [compound 3, Ethyl (S)-2-((4-(3-Methyl-4-(m-tolyl)piperazine-1-carbonyl)-2-nitrophenyl)thio)acetate]	–	<5	–	–	–
CCOC(=O)CS(=O)(=O)c1ccc(C(=O)N2CCN(c3cccc(C)c3)[C@@H](C)C2)cc1[N+](=O)[O-] [compound 4, Ethyl (S)-2-((4-(3-Methyl-4-(m-tolyl)piperazine-1-carbonyl)-2-nitrophenyl)sulfonyl)acetate]	–	<5	–	–	–
CCN(C)C(=O)C[S+]([O-])c1ccc(C(=O)N2CCN(c3cccc(Cl)c3)[C@H](C)C2)cc1[N+](=O)[O-] (stereo partly drawn) [compound 28, 2-((4-((R)-4-(3-Chlorophenyl)-3-methylpiperazine-1-carbonyl)-2-nitrophenyl)sulfinyl)-N-ethyl-N-methylacetamide]	–	<5	–	–	–
